Experiment [1] relates to alpha 1A adrenoceptor (human prostatic membranes). The following applies: similar models; literature (Motiyama et al.); cited from earlier work.
Experiment [2] deals with T1, alpha 1D adrenoceptor (rat aorta) (Rattus norvegicus, UniProt P23944).
T1 construct: from tissue; host or cells: rat aorta segments with endothelium
T1 sequence (P23944 1-561): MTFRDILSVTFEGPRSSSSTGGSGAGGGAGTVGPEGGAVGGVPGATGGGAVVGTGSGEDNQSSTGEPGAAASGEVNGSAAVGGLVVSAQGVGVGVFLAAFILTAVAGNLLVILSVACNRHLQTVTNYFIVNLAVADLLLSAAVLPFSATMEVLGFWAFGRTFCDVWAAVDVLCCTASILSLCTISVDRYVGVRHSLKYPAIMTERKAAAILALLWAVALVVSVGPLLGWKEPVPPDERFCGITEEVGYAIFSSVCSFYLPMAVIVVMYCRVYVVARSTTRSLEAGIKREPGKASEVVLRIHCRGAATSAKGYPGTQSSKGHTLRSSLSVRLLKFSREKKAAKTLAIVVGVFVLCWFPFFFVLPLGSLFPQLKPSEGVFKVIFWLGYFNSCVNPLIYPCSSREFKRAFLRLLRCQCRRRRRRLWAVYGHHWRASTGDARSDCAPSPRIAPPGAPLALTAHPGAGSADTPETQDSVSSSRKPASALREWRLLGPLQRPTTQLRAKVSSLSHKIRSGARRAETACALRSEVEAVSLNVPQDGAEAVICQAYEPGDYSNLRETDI
In words: Vasoconstriction assay in rat aorta induced by norepinephrine. The format is cell-based. The following applies: pKB, rat aorta, α1D. How it is done: Vasoconstriction Assay in Mouse Aorta Induced By Norepinephrine
Aorta segments with endothelium (3 mm), withdrawn from young male rats (250-300 g), were placed in containers containing physiologic solution (NaCl 122 mM, KCl 5 mM, NaHCO3 15 mM, glucose 11.5 mM, MgCl2 1.2 mM, CaCl2 1.25 mM and KH2PO4 1.2 mM), kept at 37° C. under aeration with a mixture of 95% of O2 and 5% of CO2, and submitted to a pre-charge of 5 mN for 60 minutes. During this period, eventual tension adjustments were performed until the stabilization in 0.5 g, always with renewal with physiologic solution. Then, vasoconstriction was induced by 60 mM KCl solution, in each ring, to verify the viability of the organ on the day of experiment. The preparation was submitted to the contraction with norepinephrine (5×10^−5 M) and, then the rings were washed to reach the basal line (0% of vasoconstriction). The procedure was repeated until the obtainment of a constant curve. Later, a curve, using increasing concentrations of norepinephrine (3×10^−8-5×10^−5 M), was performed for each ring, as a positive control. The segments were washed to reach the basal line (0% of vasoconstriction) and incubated with the test compounds, individually, for 30 minutes. A second norepinephrine curve was performed and obtained data compared to the first control curve. […] The aorta rings were used once for each compound.
Determination of the LASSBio 772 Antagonist Potency (pKB) on the Vasoconstriction of Rabbit or Rat Thoracic Aorta.

The next experiment addresses T2, α1A (Oryctolagus cuniculus, UniProt O02824).
T2 construct: from tissue
T2 sequence (O02824 1-466): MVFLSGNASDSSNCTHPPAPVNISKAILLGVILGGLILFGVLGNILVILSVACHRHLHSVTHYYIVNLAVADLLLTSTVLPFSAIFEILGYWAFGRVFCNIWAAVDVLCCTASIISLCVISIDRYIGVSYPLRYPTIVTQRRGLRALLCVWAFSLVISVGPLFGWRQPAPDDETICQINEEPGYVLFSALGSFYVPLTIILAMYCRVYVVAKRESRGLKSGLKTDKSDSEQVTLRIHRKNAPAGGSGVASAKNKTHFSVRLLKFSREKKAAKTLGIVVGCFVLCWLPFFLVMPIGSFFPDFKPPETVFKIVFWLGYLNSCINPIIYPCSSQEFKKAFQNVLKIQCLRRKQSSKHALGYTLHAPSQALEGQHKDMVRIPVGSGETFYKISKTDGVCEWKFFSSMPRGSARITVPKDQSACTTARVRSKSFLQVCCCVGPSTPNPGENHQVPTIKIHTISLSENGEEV
Nature of the experiment: Binding study in rabbit liver. The following applies: rabbit liver, α1A; read-out: IC50.

The subject of experiment [3] is phenylephrine vasopressor effects. Nature of the experiment: Inhibition of phenylephrine vasopressor effects in anesthetized rabbits. The format is in vivo. The following applies: rabbit, n=5. As to the method:
Animal and Homodynamic Measurements:
The experiments were performed with male rabbits weighing 3 kg, from the CECAL (Centro de Criação de Animais de Laboratório) at Fundação Oswaldo Cruz. The animals were anesthetized with sodium pentobarbital (40 mg/kg) in the ear marginal vein, and anesthesia maintenance was obtained with supplemental intravenous (i.v.) doses of 5 mg/kg as necessary. The […] were tracheomized, inserted with a polyethylene canule, and immobilized with pancuronium bromide (1 mg/kg, i.v.), with supplemental doses of 0.2 mg/kg for each hour of experiment and artificially ventilated with a mechanical fan (Rodent ventilator 7025, Ugo Basile) with a volume of 10 ml/kg and frequency from 40 to 50 incursions/min. The right femoral vein was catheterized for drug administration.
The arterial pressure was monitored through abdominal aorta catheter via the right femoral artery and connected to a quartz transductor Hewlett Packard (1290 A), which was connected to an arterial pressure processor and recorder Hewlett Packard (system 7754 with amplifier 8805 B).
The systolic (SAP) and diastolic (DAP) arterial pressures were obtained directly from the records and the average arterial pressure (AAP) was calculated by DAP's Sum with a third of the differential pressure [[…]]. The cardiac frequency was determined by counting the pressure waves, visualized with the speed increase of the recorder paper.
The cardiac debit (DC) was monitored using an electromagnetic probe, connected to a Skalar flowmeter model MDL 1401. After left thoraxatomy, between the second and third ribs, was made an incision in the pericardium and the heart was exposed to enable the visualization and dissection of the ascending aorta for installation of the electromagnetic probe. The systemic vascular resistance (SVR) was calculated as a quotient of the average arterial pressure by the cardiac debit, multiplied by a conversion factor 80 (SVR=AAP/DC×80) and expressed in dyn/seg/cm-5.
At the conclusion of the anesthetic-surgical procedures, a 15-minute period was allowed for stabilization of the homodynamic parameters. Before any pharmacological manipulation the average arterial pressure, cardiac frequency and cardiac debit measurements were obtained. These values were considered basal homodynamic values.
Dose-Response Curve of the Phenylephrine Vasopressor Effect:
After surgical procedures and stabilization of the homodynamic parameters, a dose-response curve of the phenylephrine pressure effects was performed ([…], i.v.), that were named control curves. […]
The results were expressed as average±standard deviation (E.P.M.) The administration effects of LASSBio 772 with regard to the basal values were analyzed through variance analysis (ANOVA) for repeated measurements. […]

Another experiment concerns the target T3, alpha 1B subtype (Rattus norvegicus, UniProt P15823).
T3 construct: from tissue; host or cells: rat liver homogenate/membranes
T3 sequence (P15823 1-515): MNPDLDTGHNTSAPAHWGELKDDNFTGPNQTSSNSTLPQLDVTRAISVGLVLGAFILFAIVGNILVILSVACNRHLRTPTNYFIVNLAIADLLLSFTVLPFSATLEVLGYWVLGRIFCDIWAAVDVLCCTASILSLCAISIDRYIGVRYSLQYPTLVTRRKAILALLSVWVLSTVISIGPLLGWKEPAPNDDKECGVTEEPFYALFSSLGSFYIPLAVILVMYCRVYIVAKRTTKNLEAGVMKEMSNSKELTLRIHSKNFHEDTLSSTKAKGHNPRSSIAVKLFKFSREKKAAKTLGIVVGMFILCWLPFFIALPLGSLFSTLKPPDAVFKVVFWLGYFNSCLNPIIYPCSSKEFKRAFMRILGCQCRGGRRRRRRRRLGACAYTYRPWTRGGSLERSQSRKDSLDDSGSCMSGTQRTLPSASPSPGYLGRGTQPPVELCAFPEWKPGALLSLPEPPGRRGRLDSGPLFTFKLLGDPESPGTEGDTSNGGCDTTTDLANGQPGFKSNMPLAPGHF
In words: [3H]prazosin binding assay in rat liver. The following applies: rat liver, α1B; read-out: IC50.

Experiment [4] has as its system alpha 1A and alpha 1B adrenoceptors (rabbit aorta, α1A > α1B). The following applies: literature (Yamagishi et al.); cited from earlier work.
The next experiment concerns the target T4, alpha 1A subtype (Rattus norvegicus, UniProt P43140).
T4 sequence (P43140 1-466): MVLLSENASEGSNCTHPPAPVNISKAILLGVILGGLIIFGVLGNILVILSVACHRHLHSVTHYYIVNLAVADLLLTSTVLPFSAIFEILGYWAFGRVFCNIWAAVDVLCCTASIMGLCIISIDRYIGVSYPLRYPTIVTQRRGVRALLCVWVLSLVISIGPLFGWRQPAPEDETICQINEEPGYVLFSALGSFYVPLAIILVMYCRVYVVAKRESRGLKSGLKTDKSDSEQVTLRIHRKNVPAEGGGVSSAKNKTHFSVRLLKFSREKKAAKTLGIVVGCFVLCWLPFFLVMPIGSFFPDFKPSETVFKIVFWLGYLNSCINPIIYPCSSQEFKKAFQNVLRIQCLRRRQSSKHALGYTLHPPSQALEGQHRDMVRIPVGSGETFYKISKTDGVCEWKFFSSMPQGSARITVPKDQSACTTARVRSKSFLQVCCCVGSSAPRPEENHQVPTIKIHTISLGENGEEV
Also on record: from tissue; host or cells: rat salivary gland homogenate/membranes. The following applies: 0.06 nM [3H]prazosin (Michel et al.), read-out: IC50 of reference; cited from earlier work.

As to `C[C@H](Cc1cc2c(c(C(N)=O)c1)N(CCCO)CC2)NCCOc1ccccc1OCC(F)(F)F` [KMD-3213], in experiment [1], the Kb was 0.35 nM and the pKB (commonly −log10 of the KB, conventionally taken in molar units) was 9.45.
For the compound `COc1ccccc1N1CCN(CCc2ccccc2)CC1` [LASSBio 772B, 4-Phenethyl-1-(2-methoxy-phenyl)-piperazine], the Kb in experiment [2] was 0.02 nM. For the same compound, the IC50 (in general, the concentration that inhibits the measured activity by half) at α1A turned out to be 23.9 nM. Also, in experiment [3] (phenylephrine 100 μg/kg i.v.), the “AAP increase induced by phenylephrine in the presence of compound” value is listed as 9±4% and the “SVR increase induced by phenylephrine in the presence of compound” value amounted to 15±5%. Moreover, the “decrease of DC induced by phenylephrine in the presence of compound” value in experiment [3] (phenylephrine i.v.) was determined as 7±2%. The IC50 at alpha 1B subtype was determined as 130 nM.
`COc1cc2nc(N3CCN(C(=O)c4ccco4)CC3)nc(N)c2cc1OC` [Prazosin, prazosin]: the values for the Kb in experiment [4] and in experiment [1] were 1.02 nM and 1.45 nM, respectively. Moreover, the pKB in experiment [4] is on record as 9.05; in experiment [1] it was 8.84.
As for `COc1cccc(OC)c1OCCNCC1COc2ccccc2O1` (stereo not drawn) [WB 4101], the IC50 at alpha 1A subtype was 0.6 nM.
As to `CCOc1ccccc1OCCN[C@H](C)Cc1ccc(OC)c(S(N)(=O)=O)c1` [tamsulosin], in experiment [1], the Kb is 0.2 nM and the pKB is 9.68.
